Assay: Purity and stability test (content of impurities on storage)
Format: physicochemical
Details: for Content of impurities in the initial sample: before storage; for 0-8° C., content of impurities in the sample at 7 day: sealed containers at 0-8° C. for 7 days
Description: In this example, the purity and stability of the samples obtained in Comparative Examples and Examples were compared. The specific method is described as follows:
And then the content of impurities in each sample was analyzed.

SMILES	Content of impurities in the initial sample [%]	0-8° C., content of impurities in the sample at 7 day [%]
CC(O)C1NC(=O)C(N)CC(O)C(O)NC(=O)C2C(O)C(C)CN2C(=O)C(C(O)CC(N)=O)NC(=O)C(C(O)C(O)c2ccc(O)c(OS(=O)(=O)O)c2)NC(=O)C2CC(O)CN2C1=O (single isomer, unassigned) [Comparative Example 2]	1.9	3.4
CC(O)C1NC(=O)C(N)CC(O)C(O)NC(=O)C2C(O)C(C)CN2C(=O)C(C(O)CC(N)=O)NC(=O)C(C(O)C(O)c2ccc(O)c(OS(=O)(=O)O)c2)NC(=O)C2CC(O)CN2C1=O (single isomer, unassigned) [Comparative Example 3]	1.9	3.2
CC(O)C1NC(=O)C(N)CC(O)C(O)NC(=O)C2C(O)C(C)CN2C(=O)C(C(O)CC(N)=O)NC(=O)C(C(O)C(O)c2ccc(O)c(OS(=O)(=O)O)c2)NC(=O)C2CC(O)CN2C1=O (single isomer, unassigned) [Comparative Example 4]	1.8	2.9
CC(O)C1NC(=O)C(N)CC(O)C(O)NC(=O)C2C(O)C(C)CN2C(=O)C(C(O)CC(N)=O)NC(=O)C(C(O)C(O)c2ccc(O)c(OS(=O)(=O)O)c2)NC(=O)C2CC(O)CN2C1=O (single isomer, unassigned) [Comparative Example 5]	2.1	3.6
CC(O)C1NC(=O)C(N)CC(O)C(O)NC(=O)C2C(O)C(C)CN2C(=O)C(C(O)CC(N)=O)NC(=O)C(C(O)C(O)c2ccc(O)c(OS(=O)(=O)O)c2)NC(=O)C2CC(O)CN2C1=O (single isomer, unassigned) [Comparative Example 6]	2.4	4.1
CC(O)C1NC(=O)C(N)CC(O)C(O)NC(=O)C2C(O)C(C)CN2C(=O)C(C(O)CC(N)=O)NC(=O)C(C(O)C(O)c2ccc(O)c(OS(=O)(=O)O)c2)NC(=O)C2CC(O)CN2C1=O (single isomer, unassigned) [Comparative Example 7]	2.4	4.7
C[C@@H](O)[C@@H]1NC(=O)[C@@H](N)C[C@@H](O)[C@@H](O)NC(=O)[C@@H]2[C@@H](O)[C@@H](C)CN2C(=O)[C@H]([C@H](O)CC(N)=O)NC(=O)[C@H]([C@H](O)[C@@H](O)c2ccc(O)c(OS(=O)(=O)O)c2)NC(=O)[C@@H]2C[C@@H](O)CN2C1=O [Example 1]	2.5	4.8

— US9580470B2, “High-purity cyclopeptide crystal as well as preparation method and use thereof” (SHANGHAI TECHWELL BIOPHARMACEUTICAL CO., LTD., priority 2012, dated 2017)
